Measured values from patent publication US10202377B2, “3-(1H-benzo[D]imidazol-2-yl)-1H-pyrazolo[3,4-C]pyridine and therapeutic uses thereof” (Samumed, LLC, priority 2014, dated 2019).

Columns and labels:
[1] = tested on: primary human fibroblasts derived from IPF patients (LL29 cells); test: Inhibition of fibrosis (αSMA staining) in TGF-β1-treated primary human fibroblasts from IPF patients; type: cell-based; details: Fibroblast, 96 h, TGF-β1 20 ng/mL, 4 days
Summary of the method: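 LL29 IPF fibroblasts in F12 with 1% FBS were stimulated with TGF-β1 (20 ng/mL) and incubated 4 days at 37 °C. SYTOX-positive dead cells were excluded, and αSMA-positive cells were counted by immunostaining as % of total. Values were normalized to TGF-β1/DMSO wells on the same plate, and EC50 derived.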

[2] = tested on: Wnt activity (Sp5-Luc reporter, SW480 colon carcinoma cells); test: Sp5-Luc Wnt reporter gene screening assay in SW480 colon carcinoma cells; details: Homo sapiens
Experimental: The screening assay for Wnt activity is described as follows.
SW480 colon carcinoma cells were transduced with a lentiviral vector expressing luciferase with a human Sp5 promoter consisting of a sequence of eight TCF/LEF binding sites. SW480 cells stably expressing the Sp5-Luc reporter gene and a hygromycin resistance gene were selected by treatment with 150 μg/ml of hygromycin for 7 days. These stably transduced SW480 cells were expanded in cell culture and used for all further screening activities. For Sp5-Luc reporter gene assays, the cells were plated at 10,000 cells/well in 96-well plates with growth medium containing 10% fetal calf serum and incubated overnight at 37° C. and 5% CO2. […] Compound transfer from serially diluted source plates to assay plates containing the cells was accomplished using a pintool (Multimek 96, Beckman equipped with V&P Scientific FP1S50H pins) based liquid handling protocol. This protocol used a slotted pin to transfer 50 nl of compound from a source plate well to an assay plate well containing 50 μl of cells in growth medium. […] Control wells received 50 nl of DMSO treatment for normalization and calculating IC50 values. The treated cells were incubated at 37° C. and 5% CO2 for an additional forty-two hours. Following incubation, the growth medium was removed and 50 μl of BrightGlo luminescence reagent (Promega) was added to each well of the 96-well assay plates. The plates were placed on an orbital shaker for 5 min and then luminescence was quantified on the Victor3 (Perkin Elmer) plate reader.

With `CC(=O)c1ccc(-c2cccc3[nH]c(-c4n[nH]c5cnc(-c6cncc(NC(=O)Cc7ccccc7)c6)cc45)nc23)s1` [Compound 400, N-(5-(3-(4-(5-Acetylthiophen-2-yl)-1H-benzo[d]imidazol-2-yl)-1H-pyrazolo[3,4-c]pyridin-5-yl)pyridin-3-yl)-2-phenylacetamide] the EC50 [1] was 218 nM and the IC50 [2] was 42.3 nM.
For `CC(=O)c1ccc(-c2cccc3[nH]c(-c4n[nH]c5cnc(-c6cncc(NC(=O)C7CCCCC7)c6)cc45)nc23)s1` [Compound 412, N-(5-(3-(4-(5-Acetylthiophen-2-yl)-1H-benzo[d]imidazol-2-yl)-1H-pyrazolo[3,4-c]pyridin-5-yl)pyridin-3-yl)cyclohexanecarboxamide], the EC50 [1] was 9180 nM and the IC50 [2] was 150 nM.
In the case of `CC(C)(C)C(=O)Nc1cncc(-c2cc3c(-c4nc5c(-c6cc(F)cc(CNS(C)(=O)=O)c6)cccc5[nH]4)n[nH]c3cn2)c1` [Compound 424, N-(5-(3-(4-(3-Fluoro-5-(methylsulfonamidomethyl)phenyl)-1H-benzo[d]imidazol-2-yl)-1H-pyrazolo[3,4-c]pyridin-5-yl)pyridin-3-yl)pivalamide], the EC50 [1] is reported as 51 nM and the IC50 [2] is reported as 19.9 nM.
In the case of `CS(=O)(=O)NCc1cc(F)cc(-c2cccc3[nH]c(-c4n[nH]c5cnc(-c6cncc(NC(=O)c7ccccc7)c6)cc45)nc23)c1` [Compound 427, N-(5-(3-(4-(3-Fluoro-5-(methylsulfonamidomethyl)phenyl)-1H-benzo[d]imidazol-2-yl)-1H-pyrazolo[3,4-c]pyridin-5-yl)pyridin-3-yl)benzamide], the EC50 [1] is reported as 9 nM and the IC50 [2] is reported as 172 nM.
For `CCCC(=O)Nc1cncc(-c2cc3c(-c4nc5c(-c6cc(F)cc(CNS(C)(=O)=O)c6)cccc5[nH]4)n[nH]c3cn2)c1` [Compound 433, N-(5-(3-(4-(3-Fluoro-5-(methylsulfonamidomethyl)phenyl)-1H-benzo[d]imidazol-2-yl)-1H-pyrazolo[3,4-c]pyridin-5-yl)pyridin-3-yl)butyramide], the EC50 [1] was 9 nM and the IC50 [2] was 28.5 nM.
For `CS(=O)(=O)NCc1cc(F)cc(-c2cccc3[nH]c(-c4n[nH]c5cnc(-c6cncc(CNCc7ccccc7)c6)cc45)nc23)c1` [Compound 439, N-(3-(2-(5-(5-((Benzylamino)methyl)pyridin-3-yl)-1H-pyrazolo[3,4-c]pyridin-3-yl)-1H-benzo[d]imidazol-4-yl)-5-fluorobenzyl)methanesulfonamide], the EC50 [1] was 9 nM and the IC50 [2] was 40.1 nM.
For `CS(=O)(=O)NCc1cc(F)cc(-c2cccc3[nH]c(-c4n[nH]c5cnc(-c6cncnc6)cc45)nc23)c1` [Compound 442, N-(3-Fluoro-5-(2-(5-(pyrimidin-5-yl)-1H-pyrazolo[3,4-c]pyridin-3-yl)-1H-benzo[d]imidazol-4-yl)benzyl)methanesulfonamide], the EC50 [1] was 9 nM and the IC50 [2] was 26 nM.
`CCNCc1cncc(-c2cc3c(-c4nc5c(-c6cc(F)cc(NCCN(C)C)c6)cccc5[nH]4)n[nH]c3cn2)c1` [Compound 448, N^1-(3-(2-(5-(5-((Ethylamino)methyl)pyridin-3-yl)-1H-pyrazolo[3,4-c]pyridin-3-yl)-1H-benzo[d]imidazol-4-yl)-5-fluorophenyl)-N^2,N^2-dimethylethane-1,2-diamine] showed an EC50 [1] of 9 nM and an IC50 [2] of 671 nM.
In the case of `CN(C)CCNc1cc(F)cc(-c2cccc3[nH]c(-c4n[nH]c5cnc(-c6cncc(NC(=O)C(C)(C)C)c6)cc45)nc23)c1` [Compound 450, N-(5-(3-(4-(3-((2-(Dimethylamino)ethyl)amino)-5-fluorophenyl)-1H-benzo[d]imidazol-2-yl)-1H-pyrazolo[3,4-c]pyridin-5-yl)pyridin-3-yl)pivalamide], the EC50 [1] is reported as 85 nM and the IC50 [2] is reported as 159 nM.
`CCCCC(=O)Nc1cncc(-c2cc3c(-c4nc5c(-c6cc(F)cc(NCCN(C)C)c6)cccc5[nH]4)n[nH]c3cn2)c1` [Compound 460, N-(5-(3-(4-(3-((2-(Dimethylamino)ethyl)amino)-5-fluorophenyl)-1H-benzo[d]imidazol-2-yl)-1H-pyrazolo[3,4-c]pyridin-5-yl)pyridin-3-yl)pentanamide] was tested, and the EC50 [1] was 1060 nM and the IC50 [2] was 182 nM.
